Data on nine compounds can be found in patent US6696437B1, “Heterocyclically substituted benzimidazoles, the production and application thereof” (Abbott GmbH & Co. KG, priority 1999, dated 2004).

SMILES strings stand for the structures.

The conditions of data set [1]: S. Cuzzocrea et al., Br. J. Pharmacol. 1997; cited from earlier work.
Data set [2] can be described thus: Determination of the solubility in water. Conditions: pH 5-6 adjusted with sodium acetate solution. The data set is classed as physicochemical. How it is done: Determination of the Solubility in Water
A compound to be measured is dissolved directly in a fixed volume of water, and the resulting solution is adjusted to pH 5-6 with a sodium acetate solution so that the active ingredient concentration to be tested is reached. If the measured substance is not in the form of a water-soluble salt, it was dissolved in the minimum amount of dimethyl sulfoxide and then diluted with water (final dimethyl sulfoxide concentration≦1%), after which the pH was again adjusted.

Data set [3] has as its system poly(ADP-ribose) polymerase or PARP (EC 2.4.2.30). Put plainly: Inhibition of the enzyme poly(ADP-ribose) polymerase (ELISA / HTRF assay). In kind it is biochemical, human or bovine. The procedure:
The inhibitory effect of the substituted benzimidazoles I and II can be determined using an enzyme assay disclosed in the literature, with a Ki being determined as gauge of the effect. The benzimidazoles I and II were measured in this way for an inhibitory effect on the enzyme poly(ADP-ribose) polymerase or PARP (EC 2.4.2.30).
Inhibition of the Enzyme poly(ADP-ribose) Polymerase or PARP (EC 2.4.2.30)
A 96-well microtiter plate (FALCON Micro-Test IIIä Flexible Assay Plate, #3912) was coated with histones (SIGMA, H-7755). Histones were for this purpose dissolved in carbonate buffer (0.05 M […]; pH 9.4) in a concentration of 50 μg/ml. The individual wells of the microtiter plate were each incubated with 150 μl of this histone solution at room temperature for at least 2 hours or at 4° C. overnight. The wells are then blocked by adding 150 μl of a 1% strength BSA solution (SIGMA, A-7888) in carbonate buffer at room temperature for 2 hours. This is followed by three washing steps with washing buffer (0.05% […] in 1×PBS; PBS (phosphate buffered saline; Gibco, Order No. 10010): 0.21 g/l KH2PO4, 9 g/l NaCl, 0.726 g/l Na2HPO4.7H2O, pH 7.4). Washing steps were all carried out in a microtiter plate washer (“Columbus” microtiter plate washer, SLT-Labinstruments, Austria).
Required for the enzyme reaction were an enzyme reaction solution and a substrate solution, in each case as a premix. The absolute amount of these solutions depended on the intended number of assay wells.
Composition of the enzyme reaction solution per well:
4 μl of PARP reaction buffer (1 M tris-HCl pH 8.0, 100 mM MgCl2, 10 mM DTT)
20 ng of PARP (human or bovine)
4 μl of activated DNA (1 mg/ml; SIGMA, D-4522)
Composition of the substrate solution per well:
5 μl of PARP reaction buffer (10×)
0.8 μl of NAD solution (10 mM, SIGMA N-1511)
Inhibitors were dissolved in 1× PARP reaction buffer. DMSO, which was occasionally used to dissolve inhibitors in higher concentrations, was no problem up to a final concentration of 2%. For the enzyme reaction, 40μl of the enzyme reaction solution were introduced into each well and incubated with 10 μl of inhibitor solution for 10 minutes. The enzyme reaction was then started by adding 50 μl of substrate solution per well. The reaction was carried out at room temperature for 30 minutes and then stopped by washing three times with washing buffer.
The primary antibodies employed were specific anti-poly(ADP-ribose) antibodies in a dilution of 1:5000. Dilution took place in antibody buffer (1% BSA in PBS; 0.05% Tween20). Incubation time for the primary antibody was one hour at room temperature. […] This was followed by immediate measurement in an ELISA plate reader (EAR340AT “Easy Reader”, SLT-Labinstruments, Austria) (450 nm versus 620 nm).
Various concentrations were used to construct a dose-effect plot to determine the Ki of an inhibitor. […] Arithmetic means are determined using Microsoft© Excel. The IC50 is determined using the Microcal© Origin Software (Vers. 5.0) (“Sigmoidal Fit”). Conversion of the IC50 values calculated in this way into Ki values took place by using “calibration inhibitors”. The “calibration inhibitors” were also measured in each analysis. […]
Background: In an ELISA, binding on a coated surface is turned into a signal by an enzyme label.

In another data set the target is PARP II (Homo sapiens, UniProt Q9UGN5). Kind of data set: Inhibition of the enzyme PARP II. To be noted: PARP versus PARP II. In kind it is biochemical.
Sequence of PARP II (Q9UGN5 whole entry): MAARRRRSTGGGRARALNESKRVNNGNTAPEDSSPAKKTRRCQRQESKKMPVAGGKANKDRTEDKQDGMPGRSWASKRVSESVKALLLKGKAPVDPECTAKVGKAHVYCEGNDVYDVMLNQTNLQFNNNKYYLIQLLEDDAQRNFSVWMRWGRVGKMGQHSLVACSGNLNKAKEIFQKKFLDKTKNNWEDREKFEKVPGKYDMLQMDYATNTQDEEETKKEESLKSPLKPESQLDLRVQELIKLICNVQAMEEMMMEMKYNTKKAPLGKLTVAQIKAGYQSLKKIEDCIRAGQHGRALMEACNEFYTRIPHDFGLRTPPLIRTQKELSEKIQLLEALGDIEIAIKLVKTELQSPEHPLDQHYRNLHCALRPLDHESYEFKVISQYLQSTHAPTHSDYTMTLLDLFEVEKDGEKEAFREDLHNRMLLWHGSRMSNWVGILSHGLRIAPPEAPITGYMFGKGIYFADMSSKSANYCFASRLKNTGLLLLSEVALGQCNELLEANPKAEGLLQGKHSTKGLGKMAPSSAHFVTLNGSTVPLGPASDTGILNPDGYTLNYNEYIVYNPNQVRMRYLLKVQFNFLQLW

As to `NC(=O)c1cccc(N)c1` [3-aminobenzamide], the “effect in a model of circulatory failure” value in data set [1] is listed as “protective effects”. On to `NC(=O)c1cccc2[nH]c(-c3ccncc3)nc12` [Example 1, 2-Pyridin-4-ylbenzimidazole-4-carboxamide], for which the solubility in water in data set [2] is recorded as more than 0.5%. Take `CCN(CC)CCN(C)c1ccc(-c2nc3c(C(N)=O)cccc3[nH]2)cn1.Cl.Cl` [Example 15, 2-(6-((2-(N,N-Diethylamino)eth-1-yl)methylamino)pyridin-3-yl)benzimidazole-4-carboxamide×2 HCl]: in data set [3], the “ranking as PARP inhibitor” value is “best PARP inhibitors”.

Consider `CCCN1CCN(c2ccc(-c3nc4cccc(C(N)=O)c4[nH]3)cn2)CC1` [Example 16, 2-(6-(4-Propylpiperazin-1-yl)pyridin-3-yl)benzimidazole-4-carboxamide], for which the “ranking as PARP inhibitor” value in data set [3] is “best PARP inhibitors”.

For the compound `CCN(CC)CCN(C)c1cc(-c2nc3c(C(N)=O)cccc3[nH]2)ccn1.CCN(CC)CCN(C)c1cc(-c2nc3c(C(N)=O)cccc3[nH]2)ccn1.O=C(O)/C=C/C(=O)O` [Example 25, 2-(2-((2-(N,N-Diethylamino)eth-1-yl)methylamino)pyridin-4-yl)benzimidazole-4-carboxamide×½ Fumaric Acid], in data set [3], the “ranking as PARP inhibitor” value was “best PARP inhibitors”. On the same count and under the same terms, the value for `CC(C)(C)N1CCN(c2ccc(-c3nc4cccc(C(N)=O)c4[nH]3)cn2)CC1` [Example 36, 2-(2-(4-tert-Butylpiperazin-1-yl)pyridin-5-yl)benzimidazole-4-carboxamide] was “best PARP inhibitors”. Take `CCCCN1CCN(c2ccc(-c3nc4cccc(C(N)=O)c4[nH]3)cn2)CC1.Cl` [Example 37, 2-(2-(4-n-Butylpiperazin-1-yl)pyridin-5-yl)benzimidazole-4-carboxamide×HCl]: in data set [3], the “ranking as PARP inhibitor” value is recorded as “best PARP inhibitors”. For `NC(=O)c1cccc2nc(-c3ccccc3)[nH]c12` [NU 1070, 2-phenylbenzimidazole-4-carboxamide], the “Ki values for PARP compared with PARP II (selectivity)” value on PARP II was “same order of magnitude”. Consider `COc1ccc(-c2nc3cccc(C(N)=O)c3[nH]2)cc1` [NU 1076, reference compound], for which, in data set [2], the solubility in water is less than 0.01%.
